Molecular target: T1, A. thaliana PII (H6PII-tp) (Arabidopsis thaliana, UniProt Q9ZST4)
T1 sequence (Q9ZST4 62-196): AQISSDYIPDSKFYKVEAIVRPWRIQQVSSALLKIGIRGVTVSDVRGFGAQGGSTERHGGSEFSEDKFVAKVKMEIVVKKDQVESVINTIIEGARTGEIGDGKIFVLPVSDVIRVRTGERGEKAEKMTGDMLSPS
Experiment: isothermal titration calorimetry
Assay type: binding

O=C(O)CCC(=O)C(=O)O [2OG, 2-oxoglutarate]
Kd: 111 ± 3.4 µM

Reference: paper PMC3410613 (Frontiers in Plant Science, 2012)
